Measurements from patent US6274715A, “Tricyclic erythromycin derivatives” (priority 1997, dated 2001).
Values after ≈ are worked out from the molar mass of the structure shown.

Legend:
Assay type in all cases: cell-based
[1] = system: STAPHYLOCOCCUS AUREUS ATCC 6538P; test: In vitro antibacterial activity, MIC, BHI agar dilution; conditions: S. aureus ATCC 6538P, 35-37° C., 20 to 24 hours, unit assumed
[2] = system: STAPHYLOCOCCUS AUREUS A5177; test: as above; conditions: S. aureus A5177, unit assumed
[3] = system: STAPHYLOCOCCUS AUREUS A-5278; test: as above; conditions: S. aureus A-5278, unit assumed
[4] = system: STAPHYLOCOCCUS AUREUS CMX 642A; test: as above; conditions: S. aureus CMX 642A, unit assumed
[5] = system: STAPHYLOCOCCUS AUREUS NCTC10649M; test: as above; conditions: S. aureus NCTC10649M, unit assumed
[6] = system: STAPHYLOCOCCUS AUREUS CMX 553; test: as above; conditions: S. aureus CMX 553, unit assumed
[7] = system: STAPHYLOCOCCUS AUREUS 1775; test: as above; conditions: S. aureus 1775, unit assumed
[8] = system: STAPHYLOCOCCUS EPIDERMIDIS 3519; conditions: S. epidermidis 3519; BHI agar; unit assumed
[9] = system: EN[…] ATCC 8043; test: In vitro antibacterial activity, MIC, BHI agar dilution; conditions: E. faecium ATCC 8043, unit assumed
Procedure: (§1) Representative compounds of the present invention were assayed in vitro for antibacterial activity as follows: Twelve petri dishes containing successive aqueous dilutions of the test compound mixed with 10 mL of sterilized Brain Heart Infusion (BHI) agar (Difco 0418-01-5) were prepared. Each plate was inoculated with 1:100 (or 1:10 for slow-growing strains, such as Micrococcus and Streptococcus) dilutions of up to 32 different microorganisms, using a Steers replicator block. The inoculated plates were incubated at 35-37° C. for 20 to 24 hours. In addition, a control plate, using BHI agar containing no test compound, was prepared and incubated at the beginning and end of each test.
(§2) An additional plate containing a compound having known susceptibility patterns for the organisms being tested and belonging to the same antibiotic class as the test compound was also prepared and incubated as a further control, as well as to provide test-to-test comparability. Erythromycin A was used for this purpose.
(§3) After incubation, each plate was visually inspected. The minimum inhibitory concentration (MIC) was defmed as the lowest concentration of drug yielding no growth, a slight haze, or sparsely isolated colonies on the inoculum spot as compared to the growth control.

[10] = system: M[…] ATCC 4698; test: as above; conditions: M. luteus ATCC 4698, unit assumed
Procedure: as §1, §2, §3

[11] = system: M[…] ATCC 9341; test: as above; conditions: M. luteus ATCC 9341, unit assumed
Procedure: as §1, §2, §3

[12] = system: STR[…] 508; test: as above; conditions: S. agalactiae CMX 508, unit assumed
Procedure: as §1, §2, §3

[13] = system: STREPTOCOCCUS BOVIS A-5169; test: as above; conditions: S. bovis A-5169, unit assumed
[14] = system: STREPTOCOCCUS PYOGENES EES61; test: as above; conditions: S. pyogenes EES61, unit assumed
[15] = system: STREPTOCOCCUS PYOGENES 930; test: as above; conditions: S. pyogenes 930, unit assumed
[16] = system: ESCHERICHIA COLI JUHL; conditions: E. coli JUHL; BHI agar; unit assumed
[17] = system: ESCHERICHIA COLI DC-2; test: In vitro antibacterial activity, MIC, BHI agar dilution; conditions: E. coli DC-2, unit assumed
[18] = system: ESCHERICHIA COLI H560; test: as above; conditions: E. coli H560, unit assumed
[19] = system: ESCHERICHIA COLI KNK 437; conditions: E. coli KNK 437; BHI agar; unit assumed
[20] = system: ENTEROBACTER AEROGENES ATCC 13048; test: In vitro antibacterial activity, MIC, BHI agar dilution; conditions: E. aerogenes ATCC 13048, unit assumed
[21] = system: KLEBSIELLA PNEUMONIAE ATCC 8045; test: as above; conditions: K. pneumoniae ATCC 8045, unit assumed
[22] = system: PROVIDENCIA STUARTII CMX 640; conditions: P. stuartii CMX 640; BHI agar; unit assumed
[23] = system: PSEUDOMONAS AERUGINOSA BMH10; test: In vitro antibacterial activity, MIC, BHI agar dilution; conditions: P. aeruginosa BMH10, unit assumed
[24] = system: PSEUDOMONAS AERUGINOSA 5007; test: as above; conditions: P. aeruginosa 5007, unit assumed
[25] = system: PSEUDOMONAS AERUGINOSA K799/WT; test: as above; conditions: P. aeruginosa K799/WT, unit assumed
[26] = system: PSEUDOMONAS AERUGINOSA K799/61; test: as above; conditions: P. aeruginosa K799/61, unit assumed
[27] = system: PSEUDOMONAS CEPACIA 296I; test: as above; conditions: P. cepacia 296I, unit assumed
[28] = system: PSEUDOMONAS AERUGINOSA DPHD-5263; test: as above; conditions: P. aeruginosa DPHD-5263, unit assumed
[29] = system: PSEUDOMONAS AERUGINOSA DPHD-2862; test: as above; conditions: P. aeruginosa DPHD-2862, unit assumed
[30] = system: CANDIDA ALBICANS CCH 442; test: as above; conditions: C. albicans CCH 442, unit assumed
[31] = system: MYCOBACTERIUM SMEGMATIS ATCC 114; test: as above; conditions: M. smegmatis ATCC 114, unit assumed
[32] = system: ESCHERICHIA COLI SS; test: as above; conditions: E. coli SS, unit assumed

| SMILES | MIC [1] [µg/mL] | MIC [2] [µg/mL] | MIC [3] [µg/mL] | MIC [4] [µg/mL] | MIC [5] [µg/mL] | MIC [6] [µg/mL] | MIC [7] [µg/mL] | MIC [8] [µg/mL] | MIC [9] [µg/mL] | MIC [10] [µg/mL] | MIC [11] [µg/mL] | MIC [12] [µg/mL] | MIC [13] [µg/mL] | MIC [14] [µg/mL] | MIC [15] [µg/mL] | MIC [16] [µg/mL] | MIC [17] [µg/mL] | MIC [18] [µg/mL] | MIC [19] [µg/mL] | MIC [20] [µg/mL] | further results |
| --- | --- | --- | --- | --- | --- | --- | --- | --- | --- | --- | --- | --- | --- | --- | --- | --- | --- | --- | --- | --- | --- |
| CC[C@H]1OC(=O)[C@H](C)C(=O)[C@H](C)[C@@H](O[C@@H]2O[C@H](C)C[C@H](N(C)C)[C@H]2O)[C@](C)(OC)C[C@@H](C)C2=N[C@H](Cc3ccccc3)CN3C(=O)O[C@@]1(C)[C@H]3[C@H]2C [Example 3] | 0.39 (≈ 0.536 µM) | 0.39 (≈ 0.536 µM) | > 100 | 0.39 (≈ 0.536 µM) | 0.39 (≈ 0.536 µM) | 0.39 (≈ 0.536 µM) | > 100 | 0.39 (≈ 0.536 µM) | 0.05 (≈ 0.0687 µM) | 0.39 (≈ 0.536 µM) | 0.1 (≈ 0.137 µM) | 0.01 (≈ 0.0137 µM) | 0.02 (≈ 0.0275 µM) | 0.01 (≈ 0.0137 µM) | 100 (≈ 137 µM) | > 100 | > 100 | > 100 | > 100 | > 100 | MIC [21]: > 100 µg/mL; MIC [22]: > 100 µg/mL; MIC [23]: > 100 µg/mL; MIC [24]: > 100 µg/mL; MIC [25]: > 100 µg/mL; MIC [26]: 3.1 µg/mL (≈ 4.26 µM); MIC [27]: > 100 µg/mL; MIC [28]: > 100 µg/mL; MIC [29]: > 100 µg/mL; MIC [30]: > 100 µg/mL; MIC [31]: > 100 µg/mL |
| CC[C@H]1OC(=O)[C@H](C)C(=O)[C@H](C)[C@@H](O[C@@H]2O[C@H](C)C[C@H](N(C)C)[C@H]2O)[C@](C)(OC)C[C@@H](C)C2=N[C@H](COCc3ccncc3)CN3C(=O)O[C@@]1(C)[C@H]3[C@H]2C [Example 77] | 0.39 (≈ 0.514 µM) | 0.2 (≈ 0.264 µM) | > 100 | 0.39 (≈ 0.514 µM) | 0.39 (≈ 0.514 µM) | 0.39 (≈ 0.514 µM) | > 100 | 0.39 (≈ 0.514 µM) | 0.05 (≈ 0.0659 µM) | 0.39 (≈ 0.514 µM) | 0.05 (≈ 0.0659 µM) | 0.01 (≈ 0.0132 µM) | ≤ 0.005 | < 0.005 | > 100 | > 100 | 100 (≈ 132 µM) | 50 (≈ 65.9 µM) | > 100 | > 100 | MIC [32]: 0.39 µg/mL (≈ 0.514 µM); MIC [21]: > 100 µg/mL; MIC [22]: > 100 µg/mL; MIC [23]: > 100 µg/mL; MIC [24]: > 100 µg/mL; MIC [25]: 100 µg/mL (≈ 132 µM); MIC [26]: 1.56 µg/mL (≈ 2.06 µM); MIC [27]: > 100 µg/mL; MIC [28]: > 100 µg/mL; MIC [29]: > 100 µg/mL; MIC [30]: > 100 µg/mL; MIC [31]: 0.78 µg/mL (≈ 1.03 µM) |
